US20140235685A1, “PHARMACEUTICAL COMPOSITIONS COMPRISING 4-BROMO-N-(IMIDAZOLIDIN-2-YLIDENE)-1H-BENZIMIDAZOL-5-AMINE FOR TREATING SKIN DISEASES” (Allergan, Inc., priority 2011, published 2014)

System: cutaneous blood flow in the microvasculature of the hind foot pad
Experiment: Rat Blood Flow Assay (laser Doppler flowmetry, hind foot pad)
Format: in vivo
Experimental: α-adrenergic agonists that act on the sympathetic nervous system outflow can regulate cutaneous blood flow in response to temperature changes.
A laser Doppler microvascular perfusion monitor (Laser Doppler Flowmetry LDP technique), was used to monitor red blood cell perfusion in the microvasculature of the hind foot pad. The laser doppler flowmetry (LDP) is an OxyFlo Microvascular Perfusion Monitor, from Oxford Optronix LTd. UK.
Briefly, 15 μL of test articles were applied topically to one hind foot pad of anaesthetized CD rats and 15 μL of vehicle was applied to the other footpad. The hairless CD rats used are a spontaneous mutation model isolated from a Crl:CD(SD) colony in Charles River, in the late 1980s. Rederived in 1993 and subsequently transferred to Charles River, Raleigh, N.C. for barrier room production. […] Specific genetic analysis to identify the mutation has not been undertaken. Histopathology has determined the model is euthymic.
Thirty minutes following test article administration, dynamic blood flow changes were measured and recorded every 15 seconds for 4 minutes per temperature interval for 5 intervals (22° C.→37° C.→4° C.→37° C.→22° C.). Rats were placed on a 37° C. heat pad to increase their temperature and on an ice pad to decrease their temperature to 4° C. The level of blood flow in the two paws was compared. […] It has a significant difference.

Brc1c(N=C2NCCN2)ccc2[nH]cnc12 [4-bromo-N-(imidazolidin-2-ylidene)-1H-benzimidazol-5-amine]
effect on induced vessel dilation caused at 37° C. (topical application to the skin at a concentration of 0.5%, FIG. 1): inhibited the induced vessel dilation | overall blood flow inhibition (topical, 15 μL to one hind foot pad of anaesthetized hairless CD rats vs vehicle on other footpad, measured 30 min after application over 5 temperature intervals (22→37→4→37→22° C.), P=0.014): 17%
